Assay results from PMC10223884, “Oligosaccharide Ligands of Galectin-4 and Its Subunits: Multivalency Scores Highly” (Molecules, 2023).
Values belong to the molecule of their own block, whether it stands above or below them.

Tests used:
Gal-4NL [1] = target: T1, Gal-4NL (Homo sapiens, UniProt P56470); test: competitive ELISA, inhibition of binding of Gal-4NL subunit to immobilized ASF
T1 construct: designated as Gal-4NL (aa 1-160), and Gal-4CL (aa 169-323), respectively; made in house; host or cells: E. coli Rosetta (DE3) pLysS
T1 sequence (P56470 1-160): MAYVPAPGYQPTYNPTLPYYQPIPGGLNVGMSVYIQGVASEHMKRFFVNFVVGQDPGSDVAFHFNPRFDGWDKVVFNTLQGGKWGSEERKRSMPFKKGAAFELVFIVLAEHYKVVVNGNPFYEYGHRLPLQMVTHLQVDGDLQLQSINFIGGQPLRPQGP
Procedure: (§1) To design the ELISA method, we first examined the direct binding of the whole Gal-4, Gal-4NL, and Gal-4-CL to standard glycoprotein asialofetuin (ASF, MW 48.4 kDa), which carries up to nine LacNAc epitopes. The ASF was immobilized by hydrophobic interaction in microtiter-plate wells, and the binding of increasing concentrations of Gal-4 proteins was quantified by colorimetric immunodetection using horseradish peroxidase conjugated to an anti-His-tag antibody. The apparent dissociation constants (KD) were calculated from the non-linear regression of the binding curves (Figure 3). […] While for the Gal-4 ELISA measurement we used the concentration of Gal-4 of 2.5 μM, for both subunits, it was 25 μM. […] The Gal-4 proteins were incubated with increasing concentrations of the respective inhibitors, and the concentration-dependent inhibition of the binding to the immobilized ASF was quantified using spectrophotometric colorimetric immunodetection (HRP-conjugated anti-His-tag antibody). The respective half-maximal inhibition constants (IC50) were calculated from the non-linear regression of the sigmoidal curves (Figure 3), and they are shown in Table 2 and Table 3.
(§2) Each incubation step was followed by washing the wells with 3 × 250 µL phosphate-buffered saline (PBS) containing 0.05% Tween® 20. In total, 0.1 µM ASF in PBS (50 µL/well) was coated onto microtiter plates (Nunc Immuno Sorb, ThermoFisher Scientific, Waltham, MA, USA) overnight. After blocking the wells with 2 mg/mL bovine serum albumin (BSA) in PBS buffer (250 µL/well, 1 h), serial dilutions of the inhibitors in PBS buffer containing 2 mM EDTA (EPBS) were incubated with Gal-4 (2.5 µM final dimer concentration) or its subunits, Gal-4CL and Gal-4NL (25 µM final monomer concentration) for 2 h (50 µL/well). The residual bound galectin was labeled with an anti-His-antibody conjugated with horseradish peroxidase (HRP) (Santa Cruz Biotechnology, Heidelberg, Germany; 1:999 dilution in PBS). The colorimetric reaction with TMB One substrate solution (Kem-En-Tec, Taastrup, Denmark; 50 µL/well) was stopped with 3 M hydrochloric acid (HCl) (50 µL/well) and quantified spectrophotometrically at 450 nm (Sunrise; Tecan Group Ltd., Männedorf, Switzerland). The values of half-maximal inhibitory concentrations (IC50) were calculated by non-linear regression (dose–response inhibition-variable slope) of sigmoidal curves from a minimum of three independent experiments using GraphPad Prism 8.4.3 (GraphPad Software, San Diego, CA, USA).

Gal-4N = target: Gal-4N; set-up: method as in PMID 26828567, PMID 26077389; conditions: fluorescence anisotropy, read-out: binding constant; cited from earlier work
Gal-4NL [2] = target: Gal-4NL; set-up: method as in PMID 33968903; conditions: ITC; cited from earlier work
Gal-4 [3] = target: T2, Gal-4 (Homo sapiens, UniProt P56470); test: competitive ELISA, inhibition of binding of whole Gal-4 to immobilized ASF
T2 construct: made in house; host or cells: Escherichia coli Rosetta (DE3) pLysS
T2 sequence (P56470 1-323): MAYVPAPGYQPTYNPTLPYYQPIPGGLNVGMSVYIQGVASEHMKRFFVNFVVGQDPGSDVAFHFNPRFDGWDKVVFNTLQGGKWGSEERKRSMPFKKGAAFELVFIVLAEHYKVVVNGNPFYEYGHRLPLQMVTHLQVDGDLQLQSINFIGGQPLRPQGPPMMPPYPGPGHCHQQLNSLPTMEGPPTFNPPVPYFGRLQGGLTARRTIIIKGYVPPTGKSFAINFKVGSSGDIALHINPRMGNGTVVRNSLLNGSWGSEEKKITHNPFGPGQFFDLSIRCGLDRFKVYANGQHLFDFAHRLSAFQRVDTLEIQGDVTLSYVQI
Procedure: as §1, §2

Gal-4CL [4] = target: T3, Gal-4CL (Homo sapiens, UniProt P56470); test: competitive ELISA, inhibition of binding of Gal-4CL subunit to immobilized ASF
T3 construct: designated as Gal-4NL (aa 1-160), and Gal-4CL (aa 169-323), respectively; made in house; host or cells: E. coli Rosetta (DE3) pLysS
T3 sequence (P56470 169-323): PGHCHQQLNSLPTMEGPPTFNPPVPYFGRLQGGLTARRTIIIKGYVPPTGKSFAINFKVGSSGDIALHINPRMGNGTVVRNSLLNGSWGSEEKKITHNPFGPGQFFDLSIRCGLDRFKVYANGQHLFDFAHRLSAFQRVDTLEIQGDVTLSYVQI
Procedure: as §1, §2

Gal-4C = target: Gal-4C; set-up: method as in PMID 26828567, PMID 26077389; conditions: fluorescence anisotropy, read-out: binding constant; cited from earlier work
Gal-4NL [5] = target: T1, Gal-4NL; test: direct ELISA, binding of Gal-4NL to immobilized ASF; conditions: read-out: apparent KD
Procedure: (§3) To design the ELISA method, we first examined the direct binding of the whole Gal-4, Gal-4NL, and Gal-4-CL to standard glycoprotein asialofetuin (ASF, MW 48.4 kDa), which carries up to nine LacNAc epitopes. The ASF was immobilized by hydrophobic interaction in microtiter-plate wells, and the binding of increasing concentrations of Gal-4 proteins was quantified by colorimetric immunodetection using horseradish peroxidase conjugated to an anti-His-tag antibody. The apparent dissociation constants (KD) were calculated from the non-linear regression of the binding curves (Figure 3). […] The Gal-4 proteins were incubated with increasing concentrations of the respective inhibitors, and the concentration-dependent inhibition of the binding to the immobilized ASF was quantified using spectrophotometric colorimetric immunodetection (HRP-conjugated anti-His-tag antibody). The respective half-maximal inhibition constants (IC50) were calculated from the non-linear regression of the sigmoidal curves (Figure 3), and they are shown in Table 2 and Table 3.
(§4) The apparent dissociation constant (KD) of binding of the whole Gal-4 or its subunits to ASF was determined using direct enzyme-linked immunosorbent assay (ELISA), with washing steps as specified above. […] Residual galectins bound to the wells were labeled with anti-His-antibody conjugated with HRP, and evaluated as above.

Gal-4CL [6] = target: T3, Gal-4CL; test: direct ELISA, binding of Gal-4CL to immobilized ASF; conditions: read-out: apparent KD
Procedure: as §3, §4

Gal-4 [7] = target: T2, Gal-4; test: direct ELISA, binding of whole Gal-4 to immobilized ASF; conditions: read-out: apparent KD
Procedure: as §3, §4

[8] = target: T4, asialofetuin (standard glycoprotein, MW 48.4 kDa) (UniProt P12763 19-359, glycoprotein without sialic acid; carries up to nine LacNAc epitopes); test: ELISA; direct ELISA; ASF (0.1 µM in PBS) coated on microtiter plate overnight, blocked with BSA; increasing concentrations of Gal-4 or its subunits, 2 h; detected with HRP-conjugated anti-His antibody; apparent KD from non-linear regression; conditions: both partners purified
T4 construct: Asialofetuin (desialylated fetuin), MW 48.4 kDa; Commercial asialofetuin is commonly from fetal calf serum; also called ASF
T4 sequence (looked up): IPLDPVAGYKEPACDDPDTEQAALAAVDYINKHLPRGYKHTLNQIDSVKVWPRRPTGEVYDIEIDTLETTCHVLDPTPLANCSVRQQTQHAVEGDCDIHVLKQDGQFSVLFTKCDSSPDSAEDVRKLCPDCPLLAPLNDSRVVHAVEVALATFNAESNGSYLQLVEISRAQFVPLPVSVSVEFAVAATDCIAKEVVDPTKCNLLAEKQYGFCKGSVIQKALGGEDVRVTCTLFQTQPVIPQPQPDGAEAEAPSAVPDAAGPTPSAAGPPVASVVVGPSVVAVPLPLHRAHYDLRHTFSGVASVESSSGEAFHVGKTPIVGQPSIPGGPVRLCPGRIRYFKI

[9] = target: the molecule itself; test: dynamic light scattering; Gal-4 and its subunits at 25 µM, 25 °C, Zetasizer Nano S90; size distribution by intensity and by volume
[10] = target: T5, lactosyl-decorated neo-glycoprotein 12 (human serum albumin carrier) (human, UniProt P02768 25-609, 9.6 lactosyl residues (MALDI-TOF, 72,151 Da) attached by a thiourea linker and diethyl-squarate linkage; sites not stated); test: BLI; His-tagged galectins (2 µg/mL, PBS with 0.05% Tween-20) immobilised on Ni-NTA biosensors; serially diluted neo-glycoprotein 12 in solution; 25 °C, 800 rpm; steady-state analysis; conditions: both partners purified
T5 construct: Human serum albumin, carrier of the synthetic lactosyl ligands; source: HSA coupled with squarate monoamide ester 11 (tetraborate buffer pH 9.0, 72 h), washed with water by ultracentrifugation
T5 sequence (P02768 25-609): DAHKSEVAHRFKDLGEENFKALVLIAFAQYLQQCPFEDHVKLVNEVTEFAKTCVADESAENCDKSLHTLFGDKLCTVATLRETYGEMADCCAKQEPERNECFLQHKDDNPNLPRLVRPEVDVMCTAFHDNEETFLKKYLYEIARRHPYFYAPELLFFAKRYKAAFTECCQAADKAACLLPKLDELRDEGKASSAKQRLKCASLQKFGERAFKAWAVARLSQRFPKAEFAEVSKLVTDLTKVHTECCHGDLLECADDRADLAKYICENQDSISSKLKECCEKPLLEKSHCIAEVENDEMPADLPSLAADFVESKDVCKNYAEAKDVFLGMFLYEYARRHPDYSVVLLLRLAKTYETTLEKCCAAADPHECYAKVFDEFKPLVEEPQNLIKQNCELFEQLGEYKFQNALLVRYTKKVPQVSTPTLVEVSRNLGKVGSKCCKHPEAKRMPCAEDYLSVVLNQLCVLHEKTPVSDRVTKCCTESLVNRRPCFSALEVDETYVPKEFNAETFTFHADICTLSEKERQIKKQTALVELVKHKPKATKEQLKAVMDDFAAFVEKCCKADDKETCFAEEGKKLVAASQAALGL

rp Gal-4NL, relative potency (IC50 (lactose)/IC50 (ligand)) (Gal-4NL [1]; Gal-4NL): 130
fold stronger inhibitor of Gal-4NL than blood-group antigen B (Gal-4NL [1]; Gal-4NL, ELISA): 12 fold
IC50 (Gal-4NL [1]; competitive ELISA, Gal-4NL 25 µM, immobilized ASF): 22 ± 1 µM
IC50 (Gal-4 [3]; competitive ELISA, Gal-4 2.5 µM, immobilized ASF): 50 ± 20 µM
rp, relative potency (IC50 (lactose)/IC50 (ligand)) (Gal-4 [3]; whole Gal-4): 48
rp Gal-4CL, relative potency (IC50 (lactose)/IC50 (ligand)) (Gal-4CL [4]; Gal-4CL): 320
IC50 (Gal-4CL [4]; competitive ELISA, Gal-4CL 25 µM, immobilized ASF): 27 ± 5 µM
Molecule: CC(=O)N[C@H]1[C@@H](O[C@H]2[C@@H](O)[C@@H](CO)O[C@@H](O[C@H]3[C@H](O)[C@@H](O)C(O)O[C@@H]3CO)[C@@H]2O[C@@H]2O[C@@H](C)[C@@H](O)[C@@H](O)[C@@H]2O)O[C@H](CO)[C@H](O)[C@@H]1O (some centres unmarked) [blood-group antigen A (5), blood-group antigen A type 6]
Kd (Gal-4N): 164 µM
Kd (Gal-4NL [2]): 86 µM
Kd (Gal-4C): 75 µM

Molecule: asialofetuin [ASF]
Kd (Gal-4NL [5]): 38 ± 3 µM
Kd (Gal-4CL [6]): 19 ± 2 µM
Kd (Gal-4 [7]): 3.3 ± 1.1 µM

Kd [8]: 19 ± 2 µM
B1: C-terminal subunit of Gal-4 with 10 linker residues (Gal-4CL, aa 169-323) (domain or fragment, human, UniProt P56470 169-323, looked up)
chain: PGHCHQQLNSLPTMEGPPTFNPPVPYFGRLQGGLTARRTIIIKGYVPPTGKSFAINFKVGSSGDIALHINPRMGNGTVVRNSLLNGSWGSEEKKITHNPFGPGQFFDLSIRCGLDRFKVYANGQHLFDFAHRLSAFQRVDTLEIQGDVTLSYVQI
notes: Galectin-4, human, C-terminal CRD (aa 179-323) with 10 further residues of the inter-domain linker at the N-terminus (aa 169-323); made by PCR from the Gal-4 plasmid, NdeI/XhoI; not shown: His6, N-terminal, kept
binding result [9]: binds

Kd [8]: 38 ± 3 µM
Kd [10]: 1000 ± 200 nM
B2: N-terminal subunit of Gal-4 with 10 linker residues (Gal-4NL, aa 1-160) (domain or fragment, human, UniProt P56470 1-160, looked up)
chain: MAYVPAPGYQPTYNPTLPYYQPIPGGLNVGMSVYIQGVASEHMKRFFVNFVVGQDPGSDVAFHFNPRFDGWDKVVFNTLQGGKWGSEERKRSMPFKKGAAFELVFIVLAEHYKVVVNGNPFYEYGHRLPLQMVTHLQVDGDLQLQSINFIGGQPLRPQGP
notes: Galectin-4, human, N-terminal CRD (aa 1-150) with 10 further residues of the inter-domain linker at the C-terminus (aa 1-160); made by PCR from the Gal-4 plasmid, NdeI/XhoI; not shown: His6, N-terminal, kept
